Measurements reported in patent publication US20090136470A1, “REGULATORY T CELLS AND METHODS OF MAKING AND USING SAME” (priority 2007, published 2009).

Tests used:
CD4^+CD25^−T cells = experiment: CTLA-4, CD103, CCR9 and CD25 staining of CD4 T cells stimulated with spleen APCs plus TGF-β1 and/or RA; format: cell-based, mouse
Protocol: For CD4^+CD25^− T cell isolation, spleens were removed, teased into cell-single suspensions and filtered through a 70 μm cell strainer (Fisher Scientific, USA). CD4^+CD25^−T cells were isolated by negative selection after incubation with a mix of specific biotin-conjugated mAbs (anti-CD8, CD11b, CD11ε, CD25, CD45R (B220), NK1.1, and TER119) at 1/200 dilution, and anti-biotin magnetic microbeads (25-40 μl per spleen) (Miltenyi Biotec, USA).
APCs were isolated from spleen of C57BL/6 mice by negative selection using CD90.2 (Thy1.2) magnetic microbeads to deplete T cells (Miltenyi Biotec).
The culture medium used for dendritic cell-T cell cultures was Iscove's modified Dulbecco medium (IMDM) (Gibco, USA) supplemented with 10% heat-inactivated FCS, 2 mM L-glutamine, 100 U/ml penicillin, 100 μg/ml streptomycin, and 5 mM β-mercaptoethanol (all Sigma, USA). […] For dendritic cell-T cell cultures, 2×10^4 dendritic cells and 1×10^5 T cells were cultured in a volume of 200 μl (96-well plates). For irradiated APC-T cell cultures, 5×10^5 APCs and 1×10^5 T cells were cultured in a volume of 200 μl in 96-well plates (2×10^6 APCs and 0.5×10^6 T cells per well in 48-well plates). […] For the study shown in FIG. 4A, after sorting of naive CD4^+ cells (CD25^−CD44^lowCD62L^+), cells were washed twice in PBS+0.1% BSA, counted and labeled with 2 μM of CFSE (Carboxyfluorescein diacetate, succinimidyl ester) (Molecular Probes, USA) at a concentration of 5−10×10^6 cells per ml in PBS-0.1% BSA.
(§1) To block non-specific staining, the 2.4G2 anti-CD16/32 antibody was added. […] For intracellular cytokine staining, cells obtained from in vitro cultures or isolated IELs were incubated for 4-5 hours with 50 ng/ml PMA, 750 ng/ml Ionomycin (both Sigma, USA) and 10 μg/ml Brefeldin A (Invitrogen, USA) in a tissue culture incubator at 37° C.

[1] = tested on: CD4^+T cells from small intestine lamina propria and spleen; experiment: Oral Listeria monocytogenes infection (and naïve mice) treated with RA or LE540: IL-17^+ and Foxp3^+ CD4 T cells; format: in vivo, mouse
Excerpt: Listeria monocytogenes (strain WT LMOVA) was used. Mice were orally infected (gavage) with 5×10^8 CFU of L. monocytogenes. Mice received i.p. injections of vehicle, RA or LE540 on the same day and 2 days after infection. Mice were sacrificed 5 days post-infection for analysis.
Every second day, in a interval of two weeks, naïve mice received gavage of either vehicle, RA or LE540.
Liver lymphocytes were isolated using 37.5% isotonic Percoll (GE Healthcare, USA), as previously described [Y. Kinjo et al, Nat Immunol 7, 978 (2006)]. Intestinal lymphocytes were isolated and prepared as previously described [Aranda et al., J Immunol 158, 3464 (1997)]. Briefly, small and large intestines were removed and placed in chilled HBSS media containing 5% FCS. The intestines were carefully cleaned from the mesentery and flushed of fecal content. Intestines were opened longitudinally and then cut into 1 cm pieces. The intestinal tissue was transferred to a 250-ml Erlenmeyer flasks containing 25 ml of preheated HBSS complemented with 2% FCS and 1 mM DTT (Sigma, USA) and shaken at 200 rpm for 40 min at 37° C. The tissue suspension was passed through a stainless steel sieve into 50-ml conical tubes and the cells were pelleted by centrifugation at 1200 rpm for 10 min at 4° C. The cell pellet was resuspended in complete HBSS, layered over a discontinuous 40/70% Percoll gradient, and centrifuged at 2000 rpm for 30 min. Cells from the 40/70% interface were collected, washed and resuspended in complete RPMI media. These purified cells constituted the intraepithelial lymphocyte (IEL) population. To isolate the lamina propria lymphocytes (LPL), the remaining intestinal tissue in the stainless steel sieve was minced and transferred to conical tubes. The minced pieces were resuspended in 20 ml of complete RPMI containing 1 mg/ml of collagenase (Sigma, USA) and shaken at 200 rpm for 40 min at 37° C. The tissue suspension was collected and passed through a 70 μm cell strainer and the cells were pelleted by centrifugation at 1200 rpm. The cells were then resuspended and layered onto a 40/70% Percoll gradient, centrifugated and processed as described above for the IEL preparation.
as §1
For Foxp3 staining, no stimulation with PMA/Ionomycin was performed, with the exceptions of FIGS. 8B and 9A. In these cases, the time of incubation with PMA/Ion was reduced to 3.5 hours. Intracellular Foxp3 staining was performed as per the eBioscience's Foxp3-staining kit protocol.

Structure (SMILES): CC1=C(/C=C/C(C)=C/C=C/C(C)=C/C(=O)O)C(C)(C)CCC1 [RA, All-trans retinoic acid]
- expression of CTLA-4 on TGF-β-generated Foxp3^+ cells (CD4^+CD25^−T cells): promoted the expression of CTLA-4
- induction of CTLA-4 on Foxp3^− and Foxp3^+ activated cells (early) (CD4^+CD25^−T cells; OT-II CD4 T cells, spleen APCs, TGF-β and RA): delayed
- CTLA-4 and Foxp3 phenotype of the majority of cells at later time-points (CD4^+CD25^−T cells; OT-II CD4 T cells, spleen APCs, cultured with TGF-β and RA): both CTLA-4 and Foxp3^+
- TGF-β-mediated CD103 expression on CD4 cells (CD4^+CD25^−T cells; soluble α-CD3ε, spleen APCs, TGF-β1): greatly enhanced
- Th-17 mucosal T cells (IL-17 staining of CD4^+T cells, small intestine lamina propria) ([1]; 5 days after oral L. monocytogenes infection, i.p. days 0 and 2, RA 300 μg/mouse, LE540 100 μg/mouse): measurable reduction
- differentiation / number of mucosal Foxp3^+Treg cells (small intestine lamina propria) ([1]; Lm challenged mice, 5 days after oral infection): not found to measurably enhance
- spleen Foxp3^+CD4 cells ([1]; Lm infected mice (2 i.p. injections) and naïve mice (2-week gavage)): No effect
